Test results reported in US20200199170A1, “COMPOUNDS HAVING ANTI-INFLAMMATORY AND ANTI-OXIDANT ACTIVITY” (UNIVERSITÀ DEGLI STUDI DI FERRARA, priority 2015, published 2020).

Legend:
neuronal cells = assay: Neuro-protective activity, MTT assay, glutamate-induced death; format: cell-based; details: FIG. 3; for neuro-protective activity on the death of neuronal cells caused by glutamate: MTT assay, pre-treatment before glutamate; for viability of the cells: neuronal cells, pre-treatment with compound then glutamate, MTT
[1] = test system: cell production of interleukin-1 (IL-1α) in human keratinocytes stimulated with TNF-α; assay: Anti-inflammatory activity: IL-1α production in keratinocytes stimulated with TNF-α; format: cell-based; details: human keratinocytes pretreated 24 hours with 10 μM solution, then TNF-α; negative control DMSO; FIG. 1A
Procedure: (§1) The cells (human keratinocytes acquired from Life Technologies) have been pretreated for 24 hours with 1A or 1B and subsequently stimulated with cytokines, otherwise referred to as Tumor Necrosis Factor, TNF-α, in order to mimic an inflammatory process.
TNF-α induces inflammation in the cells treated, that is to say, the cell production of interleukin-1 (IL-1α).

[2] = Photochemiluminescence antioxidant test (Photochem, luminol); details: superoxide radical, FIG. 2
Procedure: For the study of the antioxidant activity, use was made of a photochemiluminescence test that allows evaluating the antioxidant capacity of the tested molecules with respect to the superoxide radical (O2^−); the latter is photochemically generated by means of UV radiations. The marker used is luminol, a molecule that is capable of emitting chemiluminescence when it is oxidized by free radicals; such emission of light is then measured by means of a suitable instrument (Analityk Jena AG: Photochem®—Antioxidants and Free Radicals). The presence of antioxidant substances in the reaction admixture deactivates the radical species by inhibiting the emission of chemiluminescence. The analysis is very rapid and sensitive. […]
Since the antioxidant activity cannot be measured in absolute terms, the common practice is to compare the activity of a compound with that of molecules having an antioxidant capacity that is already known, such as, for example, tocopherol (otherwise known as vitamin E). By comparing the recorded values with the measurements relating to the standard reference molecules ([…]), the antioxidant capacity of the product being examined is obtained.

[3] = test system: IL-1α gene expression in human keratinocytes; assay: Real-time PCR quantification of gene expression in TNF-α stimulated keratinocytes; format: cell-based; details: keratinocytes pre-treated with compound, then TNF-α; FIG. 1B
Procedure: as §1
The cell response has also been set out by means of real-time PCR measurements, which are intended to quantify the gene expression (the production of IL-1α is an activity that is codified by specific genes). In FIG. 1B, the so-called “control” is the response of the non-stimulated cells (absence of inflammatory process), “TNF-α” is the response of the cells stimulated with cytokine, while “1A+TNF-α” and “1B+TNF-α” are the responses obtained with the cells pre-treated with 1A and 1B, respectively.

**Q.** Which “neuro-protective activity on the death of neuronal cells caused by glutamate” value (neuronal cells) does the source give for Cc1ccc(O)c2c1CCC1C3CC[C@](O)(C(O)CO)[C@@]3(C)CC(=O)[C@@]21O (stereo partly shown) [1B] here?
**A.** have a neuro-protective activity

**Q.** And the “viability of the cells” value (neuronal cells)?
**A.** ~80%

**Q.** What about the “cell production of IL-1α” value [1] of the same molecule?
**A.** comparable with that of the negative control

**Q.** What about the “moles having the antioxidant activity of 1 mole of ascorbic acid” value [2] of the same molecule?
**A.** 1.18 mol

**Q.** And the “gene expression (real-time PCR)” value [3]?
**A.** absence of gene expression

**Q.** Which “neuro-protective activity on the death of neuronal cells caused by glutamate” value (neuronal cells) does the source give for Cc1ccc(O)c2c1CCC1C3CC[C@](O)(C(=O)CO)[C@@]3(C)CC(=O)[C@@]21O (stereo partly shown) [1A] here?
**A.** have a neuro-protective activity

**Q.** And the “viability of the cells” value (neuronal cells)?
**A.** ~80%

**Q.** What about the “cell production of IL-1α” value [1] of the same molecule?
**A.** comparable with that of the negative control

**Q.** And the “moles having the antioxidant activity of 1 mole of ascorbic acid” value [2]?
**A.** 1.09 mol

**Q.** What about the “gene expression (real-time PCR)” value [3] of the same molecule?
**A.** absence of gene expression
